Legend:
galectin-1 = biological target: T1, galectin-1 (Homo sapiens, UniProt P09382); assay: Competitive fluorescence polarization assay, galectin-1; assay type: binding; settings: mean ± SEM of n = 4–8
T1 construct: made in house
Experimental: (§1) 1. Competitive fluorescence polarization experiments:
(§2) Human galectins -1, -3, -4N, -4C, -7, -8N, -9N, and -9C were expressed and purified as previously described 30,41. Fluorescence polarisation experiments were performed using the PHERAstar FS plat e reader (software version 2.10 R3), and the fluorescence anisotropy of fluorescein tagged probes was measured by excitation at 485 nm and emission at 520 nm. The specific conditions for galectins -1, -3, -4N, -4C, -7, -8N, -9N, and -9C were kept as report ed30,41,42. The synthesised compounds were dissolved in pure DMSO at 20 mM concentration and diluted in PBS to 3-6 different concentrations, and each concentration was tested in duplicate. The highest inhibitor concentrations tested were 1.5 mM. The

galectin-3 = biological target: T2, galectin-3 (Homo sapiens, UniProt P17931); assay: Competitive fluorescence polarization assay, galectin-3; assay type: binding; settings: mean ± SEM of n = 4–8
T2 construct: made in house
Experimental: as §1, §2

[1] = biological target: T3, galectin-4N (N-terminal domain) (Homo sapiens, UniProt P56470); assay: Competitive fluorescence polarization assay, galectin-4N; assay type: binding; settings: mean ± SEM of n = 4–8
T3 construct: galectins (N = N-terminal domain, C = C-terminal domain); made in house
T3 sequence (P56470 19-150 limits assumed): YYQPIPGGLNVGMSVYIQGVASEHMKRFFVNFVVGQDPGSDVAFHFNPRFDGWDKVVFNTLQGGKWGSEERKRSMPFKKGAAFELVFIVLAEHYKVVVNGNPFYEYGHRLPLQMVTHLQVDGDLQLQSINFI
Experimental: as §1, §2

[2] = biological target: T4, galectin-4C (C-terminal domain) (Homo sapiens, UniProt P56470); assay: Competitive fluorescence polarization assay, galectin-4C; assay type: binding; settings: mean ± SEM of n = 4–8
T4 construct: galectins (N = N-terminal domain, C = C-terminal domain); made in house
T4 sequence (P56470 194-323 limits assumed): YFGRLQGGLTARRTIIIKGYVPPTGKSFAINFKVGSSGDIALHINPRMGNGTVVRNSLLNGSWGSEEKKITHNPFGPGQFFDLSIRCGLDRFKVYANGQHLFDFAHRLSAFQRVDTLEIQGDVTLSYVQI
Experimental: as §1, §2

[3] = biological target: T5, galectin-8N (galectin-8 N-terminal domain) (Homo sapiens, UniProt O00214); assay: Competitive fluorescence polarization assay, galectin-8N; assay type: binding; settings: mean ± SEM of n = 4–8
T5 construct: selective ligand for the galectin-8 N-terminal domain (galectin-8N); made in house
T5 sequence (O00214 19-152 limits assumed): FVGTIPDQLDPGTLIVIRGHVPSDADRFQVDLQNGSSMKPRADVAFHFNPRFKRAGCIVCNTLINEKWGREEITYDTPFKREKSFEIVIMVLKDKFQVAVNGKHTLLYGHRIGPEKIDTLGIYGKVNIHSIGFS
Experimental: All synthesized D-galactal derivatives had higher binding affinities for galectin-8N than D-galactal 3.
as §1, §2

[4] = biological target: T6, galectin-8C (C-terminal domain) (Homo sapiens, UniProt O00214); assay: Competitive fluorescence polarization assay, galectin-8C; assay type: binding; settings: mean ± SEM of n = 4–8
T6 construct: galectins (N = N-terminal domain, C = C-terminal domain)
T6 sequence (O00214 187-317 limits assumed): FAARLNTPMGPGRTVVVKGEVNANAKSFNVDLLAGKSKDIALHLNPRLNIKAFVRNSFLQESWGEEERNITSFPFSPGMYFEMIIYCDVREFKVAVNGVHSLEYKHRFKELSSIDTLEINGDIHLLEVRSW

[5] = biological target: T7, galectin-9N (N-terminal domain) (Homo sapiens, UniProt O00182); assay: Competitive fluorescence polarization assay, galectin-9N; assay type: binding; settings: mean ± SEM of n = 4–8
T7 construct: galectins (N = N-terminal domain, C = C-terminal domain); made in house
Experimental: as §1, §2

[6] = biological target: T8, galectin-9C (C-terminal domain) (Homo sapiens, UniProt O00182); assay: Competitive fluorescence polarization assay, galectin-9C; assay type: binding; settings: mean ± SEM of n = 4–8
T8 construct: galectins (N = N-terminal domain, C = C-terminal domain); made in house
Experimental: as §1, §2

galectin-2 = biological target: T9, galectin-2 (Homo sapiens, UniProt P05162); assay: Competitive fluorescence polarization assay, galectin-2; assay type: binding; settings: mean ± SEM of n = 4–8
T9 sequence (P05162 1-132): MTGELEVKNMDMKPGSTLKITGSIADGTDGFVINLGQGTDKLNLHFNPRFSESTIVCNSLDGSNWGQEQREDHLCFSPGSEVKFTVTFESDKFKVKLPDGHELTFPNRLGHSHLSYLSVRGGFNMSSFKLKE

galectin-7 = biological target: T10, galectin-7 (Homo sapiens, UniProt P47929); assay: Competitive fluorescence polarization assay, galectin-7; assay type: binding; settings: mean ± SEM of n = 4–8
T10 construct: made in house
Experimental: as §1, §2

K562 cancer cell line = assay: MTS metabolic activity (cytotoxicity) assay, K562; assay type: cell-based; settings: concentrations 1 to 100 μM, 24 hours
Experimental: (§3) We have investigated the cytotoxicity of the compounds 1, 6a, and 6c via a (3-(4,5-dimethylthiazol-2-yl)-5-(3-carboxymethoxyphenyl)-2-(4-sulfophenyl)-2H-tetrazolium) (MTS) assay in K562 and MDA-MB-231 cancer cell lines to establish the direct antitumor activity of compounds, as well as human peripheral blood mononuclear cells (PBMCs), to evaluate their safety.
(§4) Metabolic activity assay:
(§5) The metabolic activities of the cell lines were determined using the CellTiter 96 Aqueous One Solution cell proliferation assay (MTS Reagents, Promega, Madison, WI, USA), according to the manufacturer instructions. Briefly, the cells were treated with the selected compounds in 0.1% dimethyl sulfoxide (DMSO; vehicle), 0.1% DMSO (control vehicle), or medium (control) and seeded at a cell density of 5,500 cells/well (MDA-MB-231 cells) or 4 x 10^4 cells/well (K562 cells), 7000 cells/well (HepG2 cells) or 1 x 10^5 cells/well (human PBMCs) in duplicates (MDA-MB-231, K562, and […]) or triplicates for HepG2 cells (100 µL), in sterile 96-well plates. For the MDA-MB-231 and HepG2, the cells were left to adhere overnight before adding the compounds. The plates were then incubated for 24 hours (48 hours for HepG2), after which 15 µL of MTS reagent was added to each well. After 30-90 minute of incubation, the absorbance was measured at 492 nm using a microplate reader (Synergy HTX Multi-Mode; BioTek Instruments, Inc., VT, USA). […]
(§6) Bead Array Human inflammatory cytokine Kit (content: IL-1, IL-6, IL-8, IL-10, IL-12p). The flow cytometric analyses were performed on an Attune NxT flow cytometer (Thermo Fisher Scientific, […]
(§7) Data are represented as means ± standard deviation (SD) from three representative independent experiments.
(§8) All experiments were performed at least twice, with average values expressed as means ± SD. All data were analyzed with the statistical software GraphPad Prism 8.0 (GraphPad Software, Inc., CA, USA). by one-way ANOVA followed with Dunnett’s multiple compar ison test. Differences were considered non-significant for p > 0.05, and significant (*) for p < 0.05. […]

[7] = test system: MDA-MB-231 cancer cell line; assay: MTS metabolic activity (cytotoxicity) assay, MDA-MB-231; assay type: cell-based, human; settings: concentrations 1 to 100 μM, 24 hours
Experimental: as §3, §4, §5, §6, §7, §8

[8] = test system: human peripheral blood mononuclear cells (PBMCs); assay: MTS metabolic activity (cytotoxicity) assay, PBMCs; assay type: cell-based; settings: concentrations up to 100 μM, 24 hours
Experimental: as §3, §4, §5, §6, §7, §8

T1 sequence (P09382 whole entry): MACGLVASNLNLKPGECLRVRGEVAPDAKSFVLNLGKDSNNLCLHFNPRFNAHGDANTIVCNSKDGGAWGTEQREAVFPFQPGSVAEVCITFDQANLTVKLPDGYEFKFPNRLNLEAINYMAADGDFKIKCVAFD
T8 sequence (O00182 227-355 limits assumed): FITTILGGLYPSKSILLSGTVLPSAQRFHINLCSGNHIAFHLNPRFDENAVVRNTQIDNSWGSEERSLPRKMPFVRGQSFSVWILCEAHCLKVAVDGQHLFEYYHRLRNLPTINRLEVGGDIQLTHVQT
T7 sequence (O00182 17-148 limits assumed): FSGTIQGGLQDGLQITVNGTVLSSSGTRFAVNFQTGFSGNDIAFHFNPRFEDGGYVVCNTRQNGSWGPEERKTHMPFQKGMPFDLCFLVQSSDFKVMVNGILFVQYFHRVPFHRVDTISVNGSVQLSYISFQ
T2 sequence (P17931 whole entry): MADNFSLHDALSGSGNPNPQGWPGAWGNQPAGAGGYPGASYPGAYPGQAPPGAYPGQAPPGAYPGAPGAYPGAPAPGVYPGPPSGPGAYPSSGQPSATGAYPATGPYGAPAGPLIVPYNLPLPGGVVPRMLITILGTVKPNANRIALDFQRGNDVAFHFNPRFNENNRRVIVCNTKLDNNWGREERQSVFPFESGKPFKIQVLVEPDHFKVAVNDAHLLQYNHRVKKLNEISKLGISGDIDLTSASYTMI
T10 sequence (P47929 whole entry): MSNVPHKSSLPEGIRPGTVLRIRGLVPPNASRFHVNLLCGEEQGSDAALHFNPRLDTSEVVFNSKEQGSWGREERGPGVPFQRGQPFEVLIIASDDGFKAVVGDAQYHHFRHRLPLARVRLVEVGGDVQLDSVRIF

Row | SMILES | Kd (galectin-1) | Kd (galectin-3) | Kd [1] | Kd [2] | Kd [3] | Kd [4] | Kd [5] | Kd [6] | Kd (galectin-2) | Kd (galectin-7) | cell viability (MTS), K562 (K562 cancer cell line) | cell viability (MTS), MDA-MB-231 [7] | direct cytotoxicity (MTS), PBMCs [8]
1 | COC(=O)c1ccc2nc(CO[C@@H]3C=CO[C@H](CO)[C@@H]3O)n(C)c2c1 [5a] | 2200 ± 138 µM | 1300 ± 130 µM | 1700 ± 60 µM | 2600 ± 230 µM | 400 ± 34 µM | 3000 ± 380 µM | > 1500 µM |  |  |  |  |  | 
2 | CCOC(=O)c1ccc2c(c1)nc(CO[C@@H]1C=CO[C@H](CO)[C@@H]1O)n2C [5b] | 840 ± 20 µM | 680 ± 37 µM |  |  | 690 ± 53 µM | 1500 ± 180 µM |  |  |  |  |  |  | 
3 | COC(=O)c1ccc2nc(CO[C@@H]3C=CO[C@H](CO)[C@@H]3O)[nH]c2c1 [5c] | > 1500 µM | 1200 ± 287 µM | 3200 µM | 2500 µM | 180 ± 19 µM | 3000 ± 300 µM | > 1500 µM | > 1500 µM |  |  |  |  | 

More lines, main results first:

Row | Kd (galectin-1) | Kd (galectin-3) | Kd [1] | Kd [2] | Kd [3] | Kd [4] | Kd [5] | Kd [6] | Kd (galectin-2) | Kd (galectin-7) | SMILES | cell viability (MTS), K562 (K562 cancer cell line) | cell viability (MTS), MDA-MB-231 [7] | direct cytotoxicity (MTS), PBMCs [8]
4 | 1100 ± 87 µM | 770 ± 129 µM | 3600 µM | 2500 ± 300 µM | 810 ± 54 µM | 3000 ± 30 µM | > 1500 µM | > 1500 µM |  |  | Cn1c(CO[C@@H]2C=CO[C@H](CO)[C@@H]2O)nc2cc(C(=O)O)ccc21 [6b] |  |  | 
5 | > 1500 µM | 550 ± 32 µM | 1400 ± 230 µM | 1900 ± 400 µM | 46 ± 4 µM |  | > 1500 µM | 2500 µM | 990 ± 170 µM | > 1500 µM | O=C(O)c1ccc2nc(CO[C@@H]3C=CO[C@H](CO)[C@@H]3O)[nH]c2c1 [6c] | None of the compounds decreased the viability | None of the compounds decreased the viability | lack of direct cytotoxicity
